According to BindingDB's records for doi:10.1016/s0167-0115(98)00050-0 (Uppsala University, 1998):

Experiments:
[1] = molecular target: Pancreatic polypeptide receptor 1 (Sus scrofa, UniProt O97505)
[2] = molecular target: Neuropeptide Y receptor type 4 (Homo sapiens, UniProt P50391)
[3] = molecular target: Neuropeptide Y receptor type 4 (Rattus norvegicus, UniProt Q63447)
Neuropeptide Y receptor type 4 (Rattus norvegicus, UniProt Q63447), sequence (Q63447 whole entry): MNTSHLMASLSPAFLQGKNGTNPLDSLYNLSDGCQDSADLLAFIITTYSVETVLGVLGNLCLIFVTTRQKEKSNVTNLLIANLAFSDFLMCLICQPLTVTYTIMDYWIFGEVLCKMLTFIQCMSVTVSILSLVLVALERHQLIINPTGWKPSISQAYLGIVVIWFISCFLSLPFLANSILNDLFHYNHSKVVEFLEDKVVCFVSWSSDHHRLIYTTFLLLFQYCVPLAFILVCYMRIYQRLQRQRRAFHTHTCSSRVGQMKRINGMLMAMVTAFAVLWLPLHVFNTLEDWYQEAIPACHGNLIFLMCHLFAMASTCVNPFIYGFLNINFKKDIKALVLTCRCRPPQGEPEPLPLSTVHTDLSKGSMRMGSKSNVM

Pancreatic polypeptide receptor 1, sequence (O97505 whole entry): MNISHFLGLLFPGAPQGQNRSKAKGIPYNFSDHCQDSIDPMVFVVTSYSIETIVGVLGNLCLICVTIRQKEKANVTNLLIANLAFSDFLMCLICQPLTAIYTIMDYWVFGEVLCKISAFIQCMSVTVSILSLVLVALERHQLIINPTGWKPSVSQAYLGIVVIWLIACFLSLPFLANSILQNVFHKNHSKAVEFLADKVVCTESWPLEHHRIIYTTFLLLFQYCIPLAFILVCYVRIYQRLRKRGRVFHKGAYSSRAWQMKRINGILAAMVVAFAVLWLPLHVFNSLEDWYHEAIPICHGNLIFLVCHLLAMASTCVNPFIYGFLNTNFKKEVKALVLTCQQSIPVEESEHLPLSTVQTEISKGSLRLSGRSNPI
Neuropeptide Y receptor type 4 (Homo sapiens, UniProt P50391), sequence (P50391 whole entry C240R): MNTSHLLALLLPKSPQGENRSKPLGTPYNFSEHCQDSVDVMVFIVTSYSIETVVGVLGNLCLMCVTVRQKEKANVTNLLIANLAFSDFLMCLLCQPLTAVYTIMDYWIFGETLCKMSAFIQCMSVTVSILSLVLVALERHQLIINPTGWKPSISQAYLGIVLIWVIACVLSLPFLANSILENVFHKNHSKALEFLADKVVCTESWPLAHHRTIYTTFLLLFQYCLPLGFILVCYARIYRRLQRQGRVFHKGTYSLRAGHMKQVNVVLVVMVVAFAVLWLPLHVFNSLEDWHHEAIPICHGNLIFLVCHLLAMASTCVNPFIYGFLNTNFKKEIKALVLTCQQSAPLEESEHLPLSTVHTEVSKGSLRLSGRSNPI

| Ki [1] [nM] | Ki [2] [nM] | Ki [3] [nM] | Compound |
| --- | --- | --- | --- |
| 0.031 |  |  | CC[C@H](C)[C@H](NC(=O)[C@H](Cc1ccc(O)cc1)NC(=O)[C@H](CCCNC(=N)N)NC(=O)[C@H](CCCNC(=N)N)NC(=O)[C@H](CC(C)C)NC(=O)[C@H](CC(=O)O)NC(=O)[C@H](C)NC(=O)[C@H](C)NC(=O)[C@H](Cc1ccc(O)cc1)NC(=O)[C@H](CCC(N)=O)NC(=O)[C@H](C)NC(=O)[C@H](CCSC)NC(=O)[C@H](CCC(N)=O)NC(=O)[C@H](CCC(=O)O)NC(=O)[C@@H]1CCCN1C(=O)[C@@H](NC(=O)[C@H](C)NC(=O)[C@H](CC(N)=O)NC(=O)[C@H](CC(=O)O)NC(=O)CNC(=O)[C@@H]1CCCN1C(=O)[C@H](Cc1ccc(O)cc1)NC(=O)[C@@H](NC(=O)[C@@H]1CCCN1C(=O)[C@H](CCC(=O)O)NC(=O)[C@H](CC(C)C)NC(=O)[C@@H]1CCCN1C(=O)[C@H](C)N)C(C)C)[C@@H](C)O)C(=O)N[C@@H](CC(N)=O)C(=O)N[C@@H](CCSC)C(=O)N[C@@H](CC(C)C)C(=O)N[C@H](C(=O)N[C@@H](CCCNC(=N)N)C(=O)N1CCC[C@H]1C(=O)N[C@@H](CCCNC(=N)N)C(=O)N[C@@H](Cc1ccc(O)cc1)C(N)=O)[C@@H](C)O [CAS_59763-91-6] |
| 0.044 | 0.071 | 0.0027 | CC[C@H](C)[C@H](NC(=O)[C@H](Cc1ccc(O)cc1)NC(=O)[C@H](CCCNC(=N)N)NC(=O)[C@H](CCCNC(=N)N)NC(=O)[C@H](CC(C)C)NC(=O)[C@H](CCC(N)=O)NC(=O)[C@@H](NC(=O)[C@H](CCC(=O)O)NC(=O)[C@H](Cc1ccc(O)cc1)NC(=O)[C@H](CCC(N)=O)NC(=O)[C@H](C)NC(=O)[C@H](CCCNC(=N)N)NC(=O)[C@H](CCC(N)=O)NC(=O)[C@H](CCC(=O)O)NC(=O)[C@H](Cc1c[nH]cn1)NC(=O)[C@@H](NC(=O)[C@H](C)NC(=O)[C@H](Cc1ccc(O)cc1)NC(=O)[C@H](CC(=O)O)NC(=O)CNC(=O)[C@@H]1CCCN1C(=O)[C@H](Cc1ccc(O)cc1)NC(=O)[C@H](CCSC)NC(=O)[C@@H]1CCCN1C(=O)[C@H](CCC(=O)O)NC(=O)[C@H](CC(C)C)NC(=O)[C@@H]1CCCN1C(=O)[C@H](C)N)[C@@H](C)O)[C@@H](C)O)C(=O)N[C@@H](CC(N)=O)C(=O)N[C@H](C(=O)N[C@@H](CC(C)C)C(=O)N[C@H](C(=O)N[C@@H](CCCNC(=N)N)C(=O)N1CCC[C@H]1C(=O)N[C@@H](CCCNC(=N)N)C(=O)N[C@@H](Cc1ccc(O)cc1)C(N)=O)[C@@H](C)O)[C@@H](C)O [NSC_41735] |
| 0.013 | 0.031 | 0.006 | H-APLEPEYPGDNATPEQMAQYAAELRRYINMLTRPRY-NH2 [CAS_59763-91-6] |
